Results as given in patent US7414066B2, “Amide compounds and medications containing the same technical field” (Kowa Company Ltd., priority 1999, dated 2008).

Row | SMILES | melting point [°C]
1 | CCSc1cc(C)nc(SCC)c1NC(=O)CSc1nc2cccc(S(C)(=O)=O)c2o1 [Compound No. 1317, 2-(7-methansulfonylbenzoxazol-2-ylthio)-N-[2,4-bis(ethylthio)-6-methyl-3-pyridyl]acetamide] | 159 to 162
2 | CSc1nc(SC)c(NC(=O)CCCCCSc2nc3ccccc3o2)c(SC)n1 [Compound No. 1401, 6-(benzoxazol-2-ylthio)-N-[2,4,6-tris(methylthio)-5-pyrimidyl]hexanamide] | 149 to 153
3 | CCSc1cc(C)nc(SCC)c1NC(=O)CSc1nc2cccc(C(=O)OC)c2o1 [Compound No. 1427, 2-(7-methoxycarbonylbenzoxazol-2-ylthio)-N-[2,4-bis(ethylthio)-6-methyl-3-pyridyl]acetamide] | 168 to 169
4 | CSc1cc(C)nc(SC)c1NC(=O)CCCCCCCSc1nc2c(C)c(Cl)cc(C(C)C)c2o1 [Example 95, 8-(5-chloro-7-isopropyl-4-methylbenzoxazol-2-ylthio)-N-[2,4-bis(methylthio)-6-methyl-3-pyridyl]octanamide] | 128 to 131
5 | CSc1ncccc1NC(=O)CCCCCSc1nc2ccccc2o1 [compound 5, 6-(benzoxazol-2-ylthio)-N-(2-methylthio-3-pyridyl)hexanamide] | 127 to 128
6 | CSc1ncccc1NC(=O)CCCCCSc1nc2ccccc2s1 [compound 15, 6-(benzothiazol-2-ylthio)-N-(2-methylthio-3-pyridyl)hexanamide] | 118 to 119
7 | CSc1ncccc1NC(=O)CCCCCCCCSc1nc2ccccc2s1 [compound 18, 9-(benzothiazol-2-ylthio)-N-(2-methylthio-3-pyridyl)nonanamide] | 107 to 108
8 | CSc1ncccc1NC(=O)CCCCCSc1nc2ccccc2[nH]1 [compound 25, 6-(benzimidazol-2-ylthio)-N-(2-methylthio-3-pyridyl)hexanamide] | 121 to 123
9 | CSc1nccc(C)c1NC(=O)CCCCCCCCSc1nc2ccccc2o1 [compound 158, 9-(benzoxazol-2-ylthio)-N-(4-methyl-2-methylthio-3-pyridyl)nonanamide] | 91 to 92
10 | CSc1nc(C)ccc1NC(=O)CCCCCSc1nc2ccccc2o1 [compound 455, 6-(benzoxazol-2-ylthio)-N-(6-methyl-2-methylthio-3-pyridyl)hexanamide] | 140 to 141
11 | CSc1nc(C)ccc1NC(=O)CCCCCCCCSc1nc2ccccc2o1 [compound 458, 9-(benzoxazol-2-ylthio)-N-(6-methyl-2-methylthio-3-pyridyl)nonanamide] | 99 to 100

Results, then the compound that gave them:

Row | melting point [°C] | SMILES
12 | 122 to 123 | CSc1nc(C)ccc1NC(=O)CCCCCSc1nc2ccccc2s1 [compound 465, 6-(benzothiazol-2-ylthio)-N-(6-methyl-2-methylthio-3-pyridyl)hexanamide]
13 | 104 to 105 | CSc1nc(C)ccc1NC(=O)CCCCCCCCSc1nc2ccccc2s1 [compound 468, 9-(benzothiazol-2-ylthio)-N-(6-methyl-2-methylthio-3-pyridyl)nonanamide]
14 | 138 to 140 | CSc1nc(C)ccc1NC(=O)CCCCCSc1nc2ccccc2[nH]1 [compound 475, 6-(benzimidazol-2-ylthio)-N-(6-methyl-2-methylthio-3-pyridyl)hexanamide]
15 | 203 to 205 | CSc1cc(C)nc(SC)c1NC(=O)CSc1nc2ccccc2o1 [compound 781, 2-(benzoxazol-2-ylthio)-N-[2,4-bis(methylthio)-6-methyl-3-pyridyl]acetamide]
16 | 149 to 150 | CSc1cc(C)nc(SC)c1NC(=O)CCCSc1nc2ccccc2o1 [compound 783, 4-(benzoxazol-2-ylthio)-N-[2,4-bis(methylthio)-6-methyl-3-pyridyl]butanamide]
17 | 120 to 121 | CSc1cc(C)nc(SC)c1NC(=O)CCCCCSc1nc2ccccc2o1 [compound 785, 6-(benzoxazol-2-ylthio)-N-[2,4-bis(methylthio)-6-methyl-3-pyridyl]hexanamide]
